Tests used:
CDK7/CyclinH/Mat1 = biological target: T1, CDK7/CyclinH/Mat1 (Homo sapiens, UniProt P50613); assay: LanthaScreen Eu Kinase Binding Assay, CDK7; settings: tracer 236, read-out: Affinity (Kd) CDK7
T1 construct: purchased Carna Biosciences
Protocol: (§1) This protocol describes how the LanthaScreen Eu Kinase Binding Assay was performed to determine dissociation constants (Kd) of compounds of general formula (I) and CDK/Cyclin complexes. The principle behind this assay is based upon the binding and displacement of an Alexa Fluor 647-labeled tracer, which binds to the active site of kinases. Binding of the tracer to the kinase is detected using a Eu-labeled antibody. Simultaneous binding of both the tracer and antibody to the kinase gives rise to a FRET-signal. Binding of an inhibitor to the kinase competes for binding with the tracer, resulting in a loss of FRET.
(§2) The compounds of general formula (I) summarized in Table 1 were diluted from a 10 mM DMSO stock solution 1:10 in a total volume of 15 μL DMSO. This compound predilution was then serial diluted 1:3 over 8 steps in DMSO and briefly spun down. Each compound solution was now diluted 1:33.33 in kinase buffer (HEPES: 20 mM, pH: 8.0; MgCl2: 10 mM; DTT: 1 mM; Brij-35: 0.01%), mixed thoroughly and spun down. For every sample, 5 μL of the diluted compound were mixed with 5 μL tracer working solution (e.g. 60 nM tracer 236 in kinase buffer for CDK2/Cyclin A) and 5 μL CDK/Cyclin/Anti-GST-AB-working solution (e.g. 15 nM CDK2/Cyclin A, 1:250 dilution of Anti-GST-AB in kinase buffer) in a well of a small volume 384 well plate (Corning Incorporated, Corning, N.Y., USA; order no. 3673). […] For positive controls, in each well 5 μL of DMSO working solution (3% DMSO diluted in kinase buffer) was mixed with 5 μL CDK/Cyclin/Anti-GST-AB-working solution: (e.g. 15 nM CDK2/Cyclin A, 1:250 dilution of Anti-GST-AB in kinase buffer) and 5 μL Tracer working solution (e.g. 60 nM Tracer 236 in kinase buffer for CDK2/Cyclin A). Positive and negative controls were calculated from at least 8 different sample wells. The 384 well plates were mixed in a Teleshaker plate mixer (Beckman Coulter, Brea, Calif., USA) at 2000 rpm for 40 sec, and incubated for 1 h at room temperature before reading. The FRET signal was measured at 340 nm excitation, 665 nm and 615 nm emission (for the kinase tracer and LanthaScreen Eu-AB, respectively) with an Envision spectrophotometer (Perkin Elmer, Waltham, Mass., USA) with 50 μs delay and 300 μs integration time. Kd values were determined from the sigmoidal dose response curves with the software Quattro Workflow (Quattro GmbH, Munich, Germany).

CDK2/CyclinA = biological target: T2, CDK2/CyclinA (Homo sapiens, UniProt P24941); assay: LanthaScreen Eu Kinase Binding Assay, CDK2; settings: tracer 236, read-out: Affinity (Kd) CDK2
T2 construct: purchased Proqinase
Protocol: as §1, §2

CDK9/Cyclin T1 = biological target: T3, CDK9/Cyclin T1 (Homo sapiens, UniProt P50750); assay: LanthaScreen Eu Kinase Binding Assay, CDK9/Cyclin T1; settings: tracer 236, read-out: Affinity (Kd) CDK9/Cyclin T1
T3 construct: purchased Invitrogen
T3 sequence (P50750 whole entry): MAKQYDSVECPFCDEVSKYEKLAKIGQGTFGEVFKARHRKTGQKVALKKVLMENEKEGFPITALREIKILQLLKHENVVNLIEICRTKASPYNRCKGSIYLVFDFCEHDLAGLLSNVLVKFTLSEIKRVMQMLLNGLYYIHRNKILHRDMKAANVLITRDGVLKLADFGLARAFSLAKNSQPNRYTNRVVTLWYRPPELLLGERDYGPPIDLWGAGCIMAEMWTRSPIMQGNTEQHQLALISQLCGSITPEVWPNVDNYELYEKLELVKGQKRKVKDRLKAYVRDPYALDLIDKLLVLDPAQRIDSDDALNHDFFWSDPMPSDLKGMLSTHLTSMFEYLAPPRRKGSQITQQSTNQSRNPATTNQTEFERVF
T3 sequence (O60563 whole entry partner): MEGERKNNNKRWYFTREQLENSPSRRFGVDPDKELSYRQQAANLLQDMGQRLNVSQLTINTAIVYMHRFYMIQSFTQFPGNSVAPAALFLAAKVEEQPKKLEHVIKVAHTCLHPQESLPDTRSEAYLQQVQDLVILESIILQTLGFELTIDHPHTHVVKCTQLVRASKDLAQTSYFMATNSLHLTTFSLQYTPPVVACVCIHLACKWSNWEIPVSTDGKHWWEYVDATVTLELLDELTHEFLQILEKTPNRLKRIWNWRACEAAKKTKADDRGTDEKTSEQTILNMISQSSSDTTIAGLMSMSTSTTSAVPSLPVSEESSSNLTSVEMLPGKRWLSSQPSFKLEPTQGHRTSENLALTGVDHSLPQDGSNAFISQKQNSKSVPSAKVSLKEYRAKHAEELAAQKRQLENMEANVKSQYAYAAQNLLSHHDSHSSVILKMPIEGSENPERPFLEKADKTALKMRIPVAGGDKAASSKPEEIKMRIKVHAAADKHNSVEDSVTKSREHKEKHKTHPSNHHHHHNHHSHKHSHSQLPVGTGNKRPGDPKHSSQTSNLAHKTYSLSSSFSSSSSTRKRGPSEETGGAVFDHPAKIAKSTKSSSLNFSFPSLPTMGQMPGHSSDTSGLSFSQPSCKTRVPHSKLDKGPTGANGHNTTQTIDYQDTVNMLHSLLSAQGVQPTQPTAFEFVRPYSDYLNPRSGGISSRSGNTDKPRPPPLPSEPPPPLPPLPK
Protocol: as §1, §2

CDK9/Cyclin K = biological target: T4, CDK9/Cyclin K (Homo sapiens, UniProt P50750); assay: LanthaScreen Eu Kinase Binding Assay, CDK9/Cyclin K; settings: tracer 236, read-out: Affinity (Kd) CDK9/Cyclin K
T4 construct: purchased Invitrogen
T4 sequence (P50750 whole entry): as the sequence (P50750 whole entry) above
T4 sequence (O75909 whole entry partner): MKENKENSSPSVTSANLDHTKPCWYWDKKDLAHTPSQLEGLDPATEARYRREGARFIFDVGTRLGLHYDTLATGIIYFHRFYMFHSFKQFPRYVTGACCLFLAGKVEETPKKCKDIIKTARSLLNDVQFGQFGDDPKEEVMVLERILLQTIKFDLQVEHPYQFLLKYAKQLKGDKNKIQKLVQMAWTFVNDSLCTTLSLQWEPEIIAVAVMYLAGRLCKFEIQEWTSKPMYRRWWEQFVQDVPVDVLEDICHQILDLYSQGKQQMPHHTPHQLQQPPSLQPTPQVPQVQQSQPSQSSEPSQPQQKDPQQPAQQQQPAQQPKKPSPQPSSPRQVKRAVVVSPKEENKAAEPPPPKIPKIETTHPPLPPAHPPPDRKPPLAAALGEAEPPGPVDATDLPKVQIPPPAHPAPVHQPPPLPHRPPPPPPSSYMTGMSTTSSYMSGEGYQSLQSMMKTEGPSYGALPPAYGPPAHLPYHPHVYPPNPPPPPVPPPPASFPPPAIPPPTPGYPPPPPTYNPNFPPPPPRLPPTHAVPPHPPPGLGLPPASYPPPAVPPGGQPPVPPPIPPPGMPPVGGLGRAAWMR
Protocol: as §1, §2

T1 sequence (P50613 whole entry): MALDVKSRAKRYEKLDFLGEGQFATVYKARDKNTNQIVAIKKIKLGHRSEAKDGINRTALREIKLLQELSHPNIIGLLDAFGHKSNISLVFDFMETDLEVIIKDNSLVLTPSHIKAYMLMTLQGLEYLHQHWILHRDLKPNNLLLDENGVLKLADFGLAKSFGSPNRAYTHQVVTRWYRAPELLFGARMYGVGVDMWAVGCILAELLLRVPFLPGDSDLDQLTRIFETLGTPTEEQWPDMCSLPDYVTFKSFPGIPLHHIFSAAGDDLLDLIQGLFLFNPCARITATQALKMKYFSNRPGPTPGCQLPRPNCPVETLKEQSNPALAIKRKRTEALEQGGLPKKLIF
T1 sequence (P51946 whole entry partner): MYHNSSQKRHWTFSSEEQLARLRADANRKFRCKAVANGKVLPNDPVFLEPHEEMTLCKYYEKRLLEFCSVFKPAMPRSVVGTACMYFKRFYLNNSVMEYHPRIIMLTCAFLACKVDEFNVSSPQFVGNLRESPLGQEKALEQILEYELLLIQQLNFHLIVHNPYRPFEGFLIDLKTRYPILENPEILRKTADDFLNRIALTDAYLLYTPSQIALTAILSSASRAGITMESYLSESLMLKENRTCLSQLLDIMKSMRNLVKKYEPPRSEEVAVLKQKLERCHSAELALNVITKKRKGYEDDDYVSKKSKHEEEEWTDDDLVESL
T1 sequence (P51948 whole entry partner): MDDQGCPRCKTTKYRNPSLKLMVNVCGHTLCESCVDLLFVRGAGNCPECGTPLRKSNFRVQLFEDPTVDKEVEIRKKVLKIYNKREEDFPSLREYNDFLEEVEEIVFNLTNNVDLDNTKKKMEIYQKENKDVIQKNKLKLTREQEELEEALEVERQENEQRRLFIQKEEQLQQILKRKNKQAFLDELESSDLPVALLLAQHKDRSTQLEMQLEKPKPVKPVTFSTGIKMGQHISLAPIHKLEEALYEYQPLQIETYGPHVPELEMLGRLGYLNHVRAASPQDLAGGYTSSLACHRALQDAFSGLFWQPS

SMILES | Kd (CDK7/CyclinH/Mat1) | Kd (CDK2/CyclinA) | Kd (CDK9/Cyclin T1) | Kd (CDK9/Cyclin K)
COc1ccccc1-c1ncnc(Nc2ccc3c(c2)N(S(N)(=O)=O)CC3)n1 [Compound F1, 6-[(4-(2-Methoxyphenyl)-1,3,5-triazin-2-yl)amino]-2,3-dihydro-1H-indole-1-sulfonamide] | 13.4 µM | 1100 nM | 131 nM | 39.7 nM
COc1ccccc1-c1ncnc(Nc2cccc(NC(C)=O)c2)n1 [Compound M1, N-[3-((4-(2-Methoxyphenyl)-1,3,5-triazin-2-yl)amino)phenyl]acetamide] | > 30 µM | 1450 nM | 146 nM | 71.2 nM
NS(=O)(=O)Cc1cccc(Nc2ncnc(-c3ccccc3CNC3CC3)n2)c1 [Compound B22, 3-[(4-(2-(Cyclopropylamino-methyl)phenyl)-1,3,5-triazin-2-yl)amino]benzenemethanesulfonamide] | – | – | 425 nM | 373 nM
CC(C)(C)OC(=O)NCCCCOc1ccccc1-c1ncnc(Nc2cccc(CS(N)(=O)=O)c2)n1 [Compound B17, 3-[(4-(2-(4-(tert-Butoxycarbonylamino)butoxy)phenyl)-1,3,5-triazin-2-yl)amino]benzenemethanesulfonamide] | 12.8 µM | 2850 nM | 15 nM | 6.4 nM
COc1ccc(C(F)(F)F)cc1-c1ncnc(Nc2cccc(CS(N)(=O)=O)c2)n1 [Compound B9, 3-[(4-(2-Methoxy-5-trifluoromethyl-phenyl)-1,3,5-triazin-2-yl)amino]benzenemethanesulfonamide] | > 10 µM | – | 398 nM | 1590 nM
CCOC(=O)N=S(C)(=O)c1cccc(Nc2ncnc(-c3ccccc3OC)n2)c1 (racemic) [Compound G1, rac-S-[3-((4-(2-Methoxyphenyl)-1,3,5-triazin-2-yl)amino)phenyl]-N-ethoxycarbonyl-S-methyl-sulfoximide] | > 10 µM | > 10000 nM | 105 nM | 87.2 nM
COc1ccc(CO)cc1-c1ncnc(Nc2cccc(CS(N)(=O)=O)c2)n1 [Compound B10, 3-[(4-(5-Hydroxymethyl-2-methoxyphenyl)-1,3,5-triazin-2-yl)amino]benzenemethanesulfonamide] | > 10 µM | – | 309 nM | 110 nM
NCCCCOc1ccccc1-c1ncnc(Nc2cccc(CS(N)(=O)=O)c2)n1 [Compound I1, 3-[(4-(2-(4-Aminobutoxy)phenyl)-1,3,5-triazin-2-yl)amino]benzenemethanesulfonamide] | > 30 µM | – | 101 nM | 52 nM
CNCc1ccc(OC)c(-c2ncnc(Nc3cccc(CS(N)(=O)=O)c3)n2)c1 [Compound O1, 3-[(4-(2-Methoxy-5-(methylamino-methyl)phenyl)-1,3,5-triazin-2-yl)amino]benzenemethanesulfonamide] | > 30 µM | – | 5410 nM | 5980 nM
COc1cc(C(F)(F)F)ccc1-c1ncnc(Nc2cccc(CS(N)(=O)=O)c2)n1 [Compound B8, 3-[(4-(2-Methoxy-4-trifluoromethyl-phenyl)-1,3,5-triazin-2-yl)amino]benzenemethanesulfonamide] | > 10 µM | – | 1230 nM | 709 nM
COc1cc(F)ccc1-c1ncnc(Nc2cccc(CS(=O)(=O)NCCCCNC(=O)OC(C)(C)C)c2)n1 [Compound Q1, tert-Butyl [4-((3-((4-(4-Fluoro-2-methoxyphenyl)-1,3,5-triazin-2-yl)amino)phenyl)methylsulfonamido)butyl]carbamate] | > 10 µM | 2090 nM | 12.9 nM | 5 nM
COc1cc(F)ccc1-c1ncnc(Nc2cccc(CS(=O)(=O)NCCCCN)c2)n1 [Compound R1, N-(4-Aminobutyl)-1-[3-((4-(4-fluoro-2-methoxyphenyl)-1,3,5-triazin-2-yl)amino)phenyl]methanesulfonamide] | > 10 µM | 2920 nM | 5 nM | 5 nM
COc1c(F)cc(F)cc1-c1ncnc(Nc2cccc(CS(N)(=O)=O)c2)n1 [Compound B5, 3-[(4-(3,5-Difluoro-2-methoxyphenyl)-1,3,5-triazin-2-yl)amino]benzenemethanesulfonamide] | > 10 µM | – | 835 nM | 286 nM
COCc1ccccc1-c1ncnc(Nc2cccc(CS(N)(=O)=O)c2)n1 [Compound B24, 3-[(4-(2-(Methoxymethyl)phenyl)-1,3,5-triazin-2-yl)amino]benzenemethanesulfonamide] | > 10 µM | – | 907 nM | 1110 nM
